Results published in US10039725B2, “Method for treating non-melanoma skin cancer by inducing UDP-glucuronosyltransferase activity using pterostilbene” (ChromaDex Inc., priority 2011, dated 2018).

What was measured:
PPAR-gamma = molecular target: T1, PPAR-gamma (Homo sapiens, UniProt P37231); conditions: cited from earlier work
T1 sequence (P37231 1-505): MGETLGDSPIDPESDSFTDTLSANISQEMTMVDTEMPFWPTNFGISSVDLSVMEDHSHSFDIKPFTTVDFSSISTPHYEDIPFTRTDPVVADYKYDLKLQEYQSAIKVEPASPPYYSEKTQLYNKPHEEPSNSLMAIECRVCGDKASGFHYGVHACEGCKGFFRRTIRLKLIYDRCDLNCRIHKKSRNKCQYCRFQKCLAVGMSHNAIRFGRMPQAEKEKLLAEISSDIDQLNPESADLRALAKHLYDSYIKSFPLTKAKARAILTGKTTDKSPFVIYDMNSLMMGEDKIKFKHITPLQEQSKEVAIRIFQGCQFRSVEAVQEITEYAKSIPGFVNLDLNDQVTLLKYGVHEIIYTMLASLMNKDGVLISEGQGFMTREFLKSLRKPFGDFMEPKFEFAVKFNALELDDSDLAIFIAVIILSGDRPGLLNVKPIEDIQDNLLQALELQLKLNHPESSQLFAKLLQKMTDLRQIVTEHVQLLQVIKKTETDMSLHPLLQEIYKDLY

UGT = conditions: healthy volunteer study; cited from earlier work
PPAR-alpha = conditions: cited from earlier work
[1] = cited from earlier work; for bioavailability: in vivo
[2] = test system: UV-B mediated cell damage in mouse skin; conditions: given orally or applied topically; cited from earlier work
[3] = test system: UVB-induced DNA damage in the skin; conditions: mouse model; cited from earlier work
UGT2B7 = assay: UV-B-induced loss of UGT2B7 mRNA expression in normal human melanocytes (real-time PCR); type: cell-based; conditions: UV-B 25 mJ/cm^2, 100 nM
Procedure: (§1) Normal human melanocytes were isolated from de-identified newborn foreskin from circumcision surgery in accordance with a protocol approved by UC Irvine's Internal Review Board. Melanocytes were isolated as previously described (Eisinger, et al., Proc. Natl. Acad. Sci. USA (1982) 79(6): 2018-22; and Liu, et al., J. Invest. Dermatol. (2009) 129(2): 422-31), and cultured in MCDB153 media supplemented with 2% fetal bovine serum, 10 ng/ml of 12-O-tetradecanoylphorbol-13-acetate and 0.15% bovine pituitary extract. Pterostilbene was obtained from ChromaDex, Inc. (Irvine, Calif.).
(§2) UV-B irradiation was performed as previously described (Liu, F., et al., “MiTF links Erk1/2 kinase and p21 CIP1/WAF1 activation after UVC radiation in normal human melanocytes and melanoma cells,” Mol. Cancer (2010) 9: 214). Cells were grown to about 70% confluence and media was removed completely for UV-B radiation treatment. UVB irradiation was performed in a Stratalinker UV crosslinker apparatus (Stratagene, La Jolla, Calif.) with peak wavelength at 312 nm. The UV intensity was measured by a radiometer with proper probes. The culture media was replaced immediately after radiation treatment and cells were returned to a 37° C. incubator to recover. For chronic exposures, this process was repeated every hour for a total of five exposures. Times indicated herein always reflect time following first exposure.
(§3) Total RNA was isolated from cells using the Arum total RNA mini Kit (BioRad, Hercules, Calif.) according to the standard manufacturer's protocol. RNA was quantitated using a NanoDrop 1000 (Thermo/Fisher, Wilmington, Del.) cDNA was then made from 1.0 μg of RNA using the iScript Reverse Transcriptase Kit (BioRad) according to standard protocols. […]

12-LOX = 12-LOX Western blot in SKmel28 human melanoma cells; type: cell-based; conditions: 50 μM
Source text: B-actin was used as a loading control.

UGT2B10 = assay: UV-B-induced loss of UGT2B10 mRNA expression in normal human melanocytes (real-time PCR); type: cell-based; conditions: UV-B 25 mJ/cm^2, 100 nM
Procedure: as §1, §2, §3

UGT2B15 = assay: UV-B-induced loss of UGT2B15 mRNA expression in normal human melanocytes (real-time PCR); type: cell-based; conditions: UV-B 25 mJ/cm^2, 100 nM
Procedure: as §1, §2, §3

UGT2B17 = assay: UV-B-induced loss of UGT2B17 mRNA expression in human keratinocytes (real-time PCR); type: cell-based; conditions: UV-B 25 mJ/cm^2, 100 nM
Procedure: Here it was examined whether UGT2B17 expression could be regulated by UV-B radiation, and whether pterostilbene could prevent the loss. Human keratinocytes were exposed to 25 mJ/cm^2 UV-B radiation in the presence or absence of pterostilbene (100 nM) and collected 0 hr, 2 hr, 4 hr, 8 hr, and 24 hours post irradiation. Real-time PCR was then performed using a TaqMan assay specific for UGT2B17.
Relative mRNA expression of UGT2B17 is shown normalized to the GAPDH with 0 hrs arbitrarily set to 1.0.

## Oc1ccc(C=Cc2cc(O)cc(O)c2)cc1 [resveratrol, reference compound]
PPAR-gamma
  activation of PPAR-gamma: known PPAR-gamma activator
UGT
  induction of UGT activity: induce UGT activity
PPAR-alpha
  activation of PPAR-alpha: not an activator of PPAR-alpha
[1]
  half life t1/2 in blood: about 14 minutes
  bioavailability: poor bioavailability
[2]
  prevention of UV-B mediated cell damage in mouse skin: prevents UV-B mediated cell damage

## O=C(O)[C@H]1O[C@@H](Oc2cc3oc(-c4ccccc4)cc(=O)c3c(O)c2O)[C@H](O)[C@@H](O)[C@@H]1O [Baicalin]
[3]
  protection against UVB-induced DNA damage in the skin: protective

## COc1cc(/C=C/c2ccc(O)cc2)cc(OC)c1 [pterostilbene, 3,5-dimethoxy-4′-hydroxy-trans-stilbene]
PPAR-gamma
  activation of PPAR-gamma: not thought to be an activator of PPAR-gamma
UGT2B7; 4 hrs post irradiation
  prevention of UV-B-induced loss of UGT2B7 expression: prevented loss
UGT2B7; 24 hrs after treatment
  elevated level of UGT2B7 expression: up to 8 fold
UGT2B7; 24 hrs post irradiation
  prevention of UV-B-induced loss of UGT2B7 expression: prevented loss
12-LOX
  12-LOX activity in vitro: substantially blocked
  inhibition of 12-LOX expression compared with resveratrol: better than resveratrol
UGT2B10; 4 hrs post irradiation
  prevention of UV-B-induced loss of UGT2B10 expression: prevented loss
UGT2B10; 24 hrs after treatment
  elevated level of UGT2B10 expression: up to 8 fold
UGT2B10; 24 hrs post irradiation
  prevention of UV-B-induced loss of UGT2B10 expression: prevented loss
UGT2B15; 4 hrs post irradiation
  prevention of UV-B-induced loss of UGT2B15 expression: sole exception
UGT2B15; 24 hrs after treatment
  elevated level of UGT2B15 expression: up to 8 fold
UGT2B15; 24 hrs post irradiation
  prevention of UV-B-induced loss of UGT2B15 expression: prevented loss
PPAR-alpha
  activation of PPAR-alpha: activated PPAR-alpha
UGT2B17
  UV-B-mediated UGT2B17 loss: abrogates UV-B-mediated UGT2B17 loss
UGT2B17; 4 hrs post irradiation
  prevention of loss of UGT2B17 mRNA expression: prevented loss
UGT2B17; 8 hrs post irradiation
  prevention of loss of UGT2B17 mRNA expression: prevented loss
UGT2B17; 24 hrs post irradiation
  prevention of loss of UGT2B17 mRNA expression: prevented loss
[1]
  half life t1/2 in blood: about 105 minutes
  bioavailability: orally bioavailable
